In patent US9187426B2, “Organic compounds” (Novartis AG, priority 2008, dated 2015):

| SMILES | melting point |
| --- | --- |
| O=C(NCC1CC1)c1ccnc(N2CCN(Cc3ccc(F)cc3)C2=O)c1 [Example 15.5, N-(cyclopropylmethyl)-2-(3-(4-fluorobenzyl)-2-oxoimidazolidin-1-yl)isonicotinamide] | 135 to 137 °C |
| O=C(NCc1ccc(F)cc1)c1ccnc(N2CCN(CC3CC3)C2=O)c1 [Example 15.6, 2-(3-(cyclopropylmethyl)-2-oxoimidazolidin-1-yl)-N-(4-fluorobenzyl)isonicotinamide] | 150 to 151 °C |
| O=C(NCCC1CC1)c1ccnc(N2CCN(Cc3ccc(F)cc3)C2=O)c1 [Example 15.7, N-(2-cyclopropylethyl)-2-(3-(4-fluorobenzyl)-2-oxoimidazolidin-1-yl)isonicotinamide] | 123 to 125 °C |
| O=C(NCc1ccccc1)c1ccnc(N2CCN(CC3CC3)C2=O)c1 [Example 15.8, N-benzyl-2-(3-(cyclopropylmethyl)-2-oxoimidazolidin-1-yl)isonicotinamide] | 121 to 123 °C |
| O=C(NCc1cccnc1)c1ccnc(N2CCN(CC3CC3)C2=O)c1 [Example 15.9, 2-(3-(cyclopropylmethyl)-2-oxoimidazolidin-1-yl)-N-(pyridin-3-ylmethyl)isonicotinamide] | 122 to 123 °C |
| O=C(NCc1ccccn1)c1ccnc(N2CCN(CC3CC3)C2=O)c1 [Example 15.10, 2-(3-(cyclopropylmethyl)-2-oxoimidazolidin-1-yl)-N-(pyridin-2-ylmethyl)isonicotinamide] | 122 to 123 °C |
| O=C(NCc1ccc(F)c(F)c1)c1ccnc(N2CCN(CC3CC3)C2=O)c1 [Example 15.12, 2-(3-(cyclopropylmethyl)-2-oxoimidazolidin-1-yl)-N-(3,4-difluorobenzyl)isonicotinamide] | 134 to 136 °C |
| O=C(NCc1ccccc1)c1ccnc(-n2cnn(CC3CC3)c2=O)c1 [Example 15.13, N-benzyl-2-(1-(cyclopropylmethyl)-5-oxo-1H-1,2,4-triazol-4(5H)-yl)isonicotinamide] | 137 to 139 °C |
| O=C(NCc1ccc(F)c(F)c1)c1ccnc(N2CCN(Cc3ccccn3)C2=O)c1 [Example 15.18, N-(3,4-difluorobenzyl)-2-(2-oxo-3-(pyridin-2-ylmethyl)imidazolidin-1-yl)isonicotinamide] | 143 to 145 °C |
| O=C(NCc1ccc(F)cc1)c1ccnc(N2CCN(C(F)(F)c3ccc(C(F)F)cc3)C2=O)c1 [Example 15.21, 2-(3-((4-(difluoromethyl)phenyl)difluoromethyl)-2-oxoimidazolidin-1-yl)-N-(4-fluorobenzyl)isonicotinamide] | 173 to 175 °C |
| O=C(NCc1ccc(F)cc1)c1ccnc(N2CCN(Cc3ccc(F)cc3F)C2=O)c1 [Example 15.22, 2-(3-(2,4-difluorobenzyl)-2-oxoimidazolidin-1-yl)-N-(4-fluorobenzyl)isonicotinamide] | 171 to 173 °C |
| O=C(NCc1ccccc1)c1ccnc(-n2cnn(Cc3ccc(F)cc3)c2=O)c1 [Example 16, N-benzyl-2-(1-(4-fluorobenzyl)-5-oxo-1H-1,2,4-triazol-4(5H)-yl)isonicotinamide] | 173 to 175 °C |
| O=C(NCc1ccccc1)c1ccnc(-n2ccc(-c3ccccc3)cc2=O)c1 [Example 17, N-benzyl-2-(2-oxo-4-phenylpyridin-1(2H)-yl)isonicotinamide] | 162 to 163 °C |
| O=C(NCc1ccccc1)c1ccnc(N2CCC(c3ccccc3)CC2=O)c1 (centres unmarked) [Example 18, 2-oxo-4-phenyl-3,4,5,6-tetrahydro-2H-[1,2′]bipyridinyl-4′-carboxylic acid benzylamide] | 55 to 60 °C |
| O=C(NCc1ccccc1)c1ccnc(-n2ccc(OCc3ccccc3)cc2=O)c1 [Example 19, 4-benzyloxy-2-oxo-2H-[1,2′]bipyridinyl-4′-carboxylic acid benzylamide] | 158 to 161 °C |
| O=C(NCc1ccccc1)c1ccnc(-n2ccc(O)cc2=O)c1 [Example 20, 4-hydroxy-2-oxo-2H-[1,2′]bipyridinyl-4′-carboxylic acid benzylamide] | 102 to 105 °C |
| NC(=O)c1ccnc(N2CCN(Cc3ccc(F)cc3)C2=O)c1 [Example 22, 2-(3-(4-fluorobenzyl)-2-oxoimidazolidin-1-yl)isonicotinamide] | 206 to 208 °C |
| Cc1nnc(CNC(=O)c2ccnc(N3CCN(Cc4ccc(F)cc4)C3=O)c2)o1 [Example 26.1, 2-(3-(4-Fluorobenzyl)-2-oxoimidazolidin-1-yl)-N-((5-methyl-1,3,4-oxadiazol-2-yl)methyl)isonicotinamide] | 136 to 138 °C |
| O=C(NCc1ccccc1)c1ccnc(N2CCN(Cc3ccc4nonc4c3)C2=O)c1 [Example 26.5, 2-(3-(Benzo[c][1,2,5]-oxadiazol-5-ylmethyl)-2-oxoimidazolidin-1-yl)-N-benzylisonicotinamide] | 165 to 167 °C |
| CC(NC(=O)c1ccnc(N2CCN(Cc3ccc(F)cc3)C2=O)c1)c1ccccc1 (centres unmarked) [Example 26.6, 2-(3-(4-Fluorobenzyl)-2-oxoimidazolidin-1-yl)-N-(1-phenylethyl)-isonicotinamide] | 115 to 117 °C |
| Cc1nc(CNC(=O)c2ccnc(N3CCN(Cc4ccc(F)cc4)C3=O)c2)no1 [Example 26.7, 2-(3-(4-Fluorobenzyl)-2-oxoimidazolidin-1-yl)-N-((5-methyl-1,2,4-oxadiazol-3-yl)methyl)-isonicotinamide] | 163 to 165 °C |
| O=C(NCc1ccccn1)c1cc(N2CCN(Cc3ccc(F)cc3)C2=O)nc2ccccc12 [Example 26.8, 2-(3-(4-Fluorobenzyl)-2-oxoimidazolidin-1-yl)-N-(pyridin-2-ylmethyl)quinoline-4-carboxamide] | 161 to 163 °C |
| O=C(NCc1cc(Br)no1)c1ccnc(N2CCN(Cc3ccc(F)cc3)C2=O)c1 [Example 26.9, N-((3-Bromoisoxazol-5-yl)methyl)-2-(3-(4-fluorobenzyl)-2-oxoimidazolidin-1-yl)isonicotinamide] | 178 to 180 °C |
| O=C(NCc1cc(-c2ccccc2)on1)c1ccnc(N2CCN(Cc3ccc(F)cc3)C2=O)c1 [Example 26.10, 2-(3-(4-Fluorobenzyl)-2-oxoimidazolidin-1-yl)-N-((5-phenylisoxazol-3-yl)methyl)-isonicotinamide] | 199 to 201 °C |
| O=C(NCc1cncs1)c1ccnc(N2CCN(Cc3ccc(OC(F)(F)F)cc3)C2=O)c1 [Example 26.14, 2-(2-Oxo-3-(4-(trifluoromethoxy)benzyl)imidazolidin-1-yl)-N-(thiazol-5-ylmethyl)-isonicotinamide] | 189 to 191 °C |
| O=C(NCc1nccs1)c1ccnc(N2CCN(Cc3ccc(OC(F)(F)F)cc3)C2=O)c1 [Example 26.17, 2-(2-Oxo-3-(4-(trifluoromethoxy)benzyl)imidazolidin-1-yl)-N-(thiazol-2-ylmethyl)-isonicotinamide] | 97 to 99 °C |
| O=C(NCc1cnc(Cl)s1)c1ccnc(N2CCN(Cc3ccc(C(F)(F)F)cc3)C2=O)c1 [Example 26.20, N-((2-Chlorothiazol-5-yl)methyl)-2-(2-oxo-3-(4-(trifluoromethyl)-benzyl)imidazolidin-1-yl)isonicotinamide] | 209 to 211 °C |

Results, then the compound that gave them:

| melting point | SMILES |
| --- | --- |
| 153 to 155 °C | O=C(NCc1cccnc1)c1ccnc(N2CCN(Cc3ccc(F)cc3)C2=O)c1 [Example 15.1, 2-(3-(4-fluorobenzyl)-2-oxoimidazolidin-1-yl)-N-(pyridin-3-ylmethyl)isonicotinamide] |
| 205 to 207 °C | O=C(NCc1ccncc1)c1ccnc(N2CCN(Cc3ccc(F)cc3)C2=O)c1 [Example 15.2, 2-(3-(4-fluorobenzyl)-2-oxoimidazolidin-1-yl)-N-(pyridin-4-ylmethyl)isonicotinamide] |
| 182 to 183 °C | O=C(NCc1ccc(F)c(F)c1)c1ccnc(N2CCN(Cc3ccc(F)cc3)C2=O)c1 [Example 15.14, N-(3,4-difluorobenzyl)-2-(3-(4-fluorobenzyl)-2-oxoimidazolidin-1-yl)isonicotinamide] |
| 141 to 142 °C | O=C(NCc1ccc(F)cc1)c1ccnc(N2CCN(Cc3ccccn3)C2=O)c1 [Example 15.15, N-(4-fluorobenzyl)-2-(2-oxo-3-(pyridin-2-ylmethyl)imidazolidin-1-yl)isonicotinamide] |
| 161 to 163 °C | O=C(NCc1ccc(F)cc1)c1ccnc(N2CCN(Cc3ccncc3)C2=O)c1 [Example 15.16, N-(4-fluorobenzyl)-2-(2-oxo-3-(pyridin-4-ylmethyl)imidazolidin-1-yl)isonicotinamide] |
| 154 to 156 °C | O=C(NCc1ccccc1)c1ccnc(N2CCN(Cc3ccncc3)C2=O)c1 [Example 15.19, N-benzyl-2-(2-oxo-3-(pyridin-4-ylmethyl)imidazolidin-1-yl)isonicotinamide] |
| 165 to 167 °C | O=C(NCc1ccc(F)cc1)c1ccnc(N2CCN(Cc3ccc(F)c(F)c3)C2=O)c1 [Example 15.20, 2-(3-(3,4-difluorobenzyl)-2-oxoimidazolidin-1-yl)-N-(4-fluorobenzyl)isonicotinamide] |
| 168 to 170 °C | O=C(NCc1ccc(F)cc1)c1ccnc(N2CCN(Cc3ccc(C(F)(F)F)cc3)C2=O)c1 [Example 26.2, N-(4-Fluorobenzyl)-2-(2-oxo-3-(4-(trifluoromethyl)benzyl)imidazolidin-1-yl)isonicotinamide] |
| 211 to 213 °C | O=C(NCc1nnco1)c1ccnc(N2CCN(Cc3ccc(F)cc3)C2=O)c1 [Example 26.4, N-((1,3,4-Oxadiazol-2-yl)methyl)-2-(3-(4-fluorobenzyl)-2-oxoimidazolidin-1-yl)isonicotinamide] |
| 185 to 186 °C | O=C(NCc1cnc(Cl)s1)c1ccnc(N2CCN(Cc3ccc(F)cc3)C2=O)c1 [Example 26.11, N-((2-Chlorothiazol-5-yl)methyl)-2-(3-(4-fluorobenzyl)-2-oxoimidazolidin-1-yl)isonicotinamide] |
| 185 to 187 °C | O=C(NCc1cccnc1)c1ccnc(N2CCN(Cc3ccc(OC(F)(F)F)cc3)C2=O)c1 [Example 26.16, 2-(2-Oxo-3-(4-(trifluoromethoxy)-benzyl)imidazolidin-1-yl)-N-(pyridin-3-ylmethyl)-isonicotinamide] |
